The values that follow come from patent publication US4028351A, “Method for the preparation of derivatives of spiro (4,5)-decane and derivatives thus obtained” (Buskine S.A., priority 1971, dated 1977).

Data set [1] deals with kaolin induced oedema. The experiment in a line: Kaolin induced oedema (rat), anti-inflammatory activity. Type of data set: in vivo, Wistar rat. From the text: b) the data of anti-inflammatory activity are expressed as the volume
variation of the kaolin induced oedema in the Wistar rat;

Data set [2] concerns Acetylcholine broncho-spasm. The experiment in a line: Broncho-spasm antagonist activity (Konzett and Roessler technique), acetylcholine. Type of data set: in vivo, guinea pigs. As to conditions: Cavia porcellus, iv, guinea pig, i.v., read-out: Broncho-spasm 50% approx. inhibiting dose, Acetylcholine. How it is done:
(§1) c) the experiments on the antagonist activity against the bronochospasm
(§2) were carried out on guinea pigs, according to the technique taught by
(§3) Konzett and Roessler (Arch. Exper. Pathol. Pharm., 71, (1940), 195).

Data set [3] can be described thus: Heated plate test (mouse), analgesic activity. Type of data set: in vivo. The text has this:
a) the data of analgesic activity are expressed as the variation % of the
stimulation threshold in the mouse;

The test system of data set [4] is Histamine broncho-spasm. The experiment in a line: Broncho-spasm antagonist activity (Konzett and Roessler technique), histamine. Particulars: Cavia porcellus, iv, guinea pig, i.v., read-out: Broncho-spasm 50% approx. inhibiting dose, Histamine. Type of data set: in vivo, guinea pigs. How it is done:
as §1, §2, §3

Data set [5] in a line: LD50 (rat) i.p. Particulars: in vivo, ip.
The subject of data set [6] is Serotonine broncho-spasm. Kind of data set: Broncho-spasm antagonist activity (Konzett and Roessler technique), serotonine. Particulars: Cavia porcellus, iv, guinea pig, i.v., read-out: Broncho-spasm 50% approx. inhibiting dose, Serotonine. The data set is classed as in vivo, guinea pigs. How it is done:
as §1, §2, §3

[7] abbreviates: total dose 440 mg/kg per os (48 hours).
Where [8] appears, read: total dose 310 mg/kg per os (48 hours).

Take `O=C1NCC2(CCN(CCc3ccccc3)CC2)O1`: in data set [1] (total dose 190 mg/kg per os (48 hours)), the “Kaolin induced oedema, volume variation %” value came to 16.1%. Moreover, the figures for the ED50 in data set [2], in data set [4] and in data set [6] were 2 mg/kg, 0.5 mg/kg and 0.2 mg/kg, respectively. The “Heated plate test, % increase of threshold value” (“Heated plate test, % increase” below) in data set [3] (25 mg/kg i.p.) is listed as 63.4%. For the same molecule, in data set [5], the LD50 (commonly the dose expected to kill half of the subjects tested) came to 230 mg/kg.
On to `O=C1NCC2(CCN(C(c3ccccc3)c3ccccc3)CC2)O1`, for which the “Kaolin induced oedema, volume variation %” value in data set [1] (setting [7]) stood at 4.6%. The ED50 in data set [2], in data set [4] and in data set [6] was more than 0.5 mg/kg throughout. For the same molecule, the “Heated plate test, % increase” value in data set [3] (100 mg/kg i.p.) came to 119%. Also, in data set [5], the LD50 amounted to 346 mg/kg.
With `O=C1NCC2(CCN(CCOc3ccccc3)CC2)O1`, in data set [1] (setting [7]), the “Kaolin induced oedema, volume variation %” value came to 26.3%. Moreover, the ED50 in data set [2], in data set [4] and in data set [6] was more than 0.5 mg/kg each time. The “Heated plate test, % increase” value in data set [3] (100 mg/kg i.p.) was 49%. Further, the LD50 in data set [5] came out at 344 mg/kg.
Take `O=C1NCC2(CCN(CCc3ccc4c(c3)OCO4)CC2)O1`: in data set [1] (setting [8]), the “Kaolin induced oedema, volume variation %” value is reported as 39.5%. Also, the figures for the ED50 in data set [2], in data set [4] and in data set [6] were more than 2.5 mg/kg, 0.2 mg/kg and more than 2.5 mg/kg, respectively. Besides, the “Heated plate test, % increase” value in data set [3] (40 mg/kg i.p.) amounted to 80%. Moreover, the LD50 in data set [5] turned out to be 235 mg/kg.
On to `O=C1NCC2(CCN(Cc3ccccc3)CC2)O1`, for which the “Kaolin induced oedema, volume variation %” value in data set [1] (total dose 340 mg/kg per os (48 hours)) stood at 9.4%. The ED50 in data set [2], in data set [4] and in data set [6] was more than 0.5 mg/kg each time. Also, in data set [3] (100 mg/kg i.p.), the “Heated plate test, % increase” value is listed as 93%. For the same molecule, the LD50 in data set [5] came out at 319 mg/kg.
As for `O=C1NCC2(CCN(CCc3cccc(C(F)(F)F)c3)CC2)O1`, in data set [1] (setting [8]), the “Kaolin induced oedema, volume variation %” value was 10%. Further, the ED50 was more than 0.5 mg/kg in data set [2], 0.5 mg/kg in data set [4] and more than 0.5 mg/kg in data set [6]. Besides, in data set [3] (50 mg/kg i.p.), the “Heated plate test, % increase” value amounted to 45.6%. This molecule also displayed an LD50 in data set [5] of 344 mg/kg.
Consider `O=C1NCC2(CCN(CCc3ccc(F)cc3)CC2)O1`, for which, in data set [1] (total dose 70 mg/kg per os (48 hours)), the “Kaolin induced oedema, volume variation %” value turned out to be 19.4%. The ED50 in data set [2] came to 2 mg/kg; in data set [4], 0.2 mg/kg; in data set [6], 0.5 mg/kg. In addition, the “Heated plate test, % increase” value in data set [3] (10 mg/kg i.p.) stood at 41.7%. Besides, the median lethal dose (LD50) in data set [5] amounted to 282 mg/kg.
